Results: patent US11504365B2 (AVEO Pharmaceuticals, Inc., priority 2018, dated 2022)
Where two headings read alike, the source gives them in different places.

Experiments:
[1] = system: refractory advanced renal cell carcinoma (RCC)
Excerpt: (§1) The randomization of subjects was stratified according to the International Metastatic Renal Cell Carcinoma Database Consortium (IMDC) risk category (favorable, intermediate, poor) and according to prior therapy which could be: 1) two prior VEGFR TKIs; 2) a check point inhibitor (e.g., a PD-1 or PDL-1 inhibitor) and a prior VEGFR TKI; or 3) a VEGFR TKI plus any other systemic agent. Once the strata were identified, treatment was randomly assigned to a subject with the strata using a complete permuted block design in an unblended fashion (open-label).
Cycles were repeated every 4 weeks.
(§2) Subjects were analyzed as randomized • 2. […] Subjects were analyzed as treated. • 3. […] Subjects were analyzed as treated.
(§3) The primary efficacy endpoint (PFS) and secondary efficacy endpoints (OS, ORR, and DoR) analyses were carried out using the ITT population. The primary efficacy endpoint of PFS also was analyzed using the PP population.
(§4) The IRR was the primary data source for the PFS analysis.
(§5) The primary analysis was carried out by using a stratified Log-Rank test, in which the stratification factors were IMDC risk category (favorable; intermediate; poor) and prior therapy (two prior VEGFR TKIs; a prior checkpoint inhibitor (PD-1 or PD1 L inhibitor) plus a prior VEGFR TKI; a prior VEGFR TKI plus any other systemic agent), and using a two-sided 5% significance level. The distribution of the PFS was estimated using the Kaplan-Meier method.
(§6) The DoR was analyzed using the same method as the progression-free survival analysis. DoR was only calculated for the subgroup of subjects with an objective tumor response (PR or CR).

[2] = system: refractory advanced renal cell carcinoma (RCC); test: Randomized open-label Phase 3 study of tivozanib versus sorafenib, efficacy (PFS, OS, ORR, DoR); details: for median PFS: ITT population, independent radiologic review, stratified log rank p-value 0.0165; for median OS: ITT, two years after final patient enrollment, stratified log rank p-value 0.9501; for median PFS, subset receiving a prior check point inhibitor: prior checkpoint inhibitor at any time, tivozanib n=52, sorafenib n=46, unstratified Log-rank p-value 0.0616; for duration of response (DoR), 1st quartile: subjects with objective tumor response (PR or CR), not statistically significant; for 1-year probability of survival: subjects with prior checkpoint inhibitor, FIG. 5 (Kaplan-Meier analysis of IRR PFS)
Excerpt: as §1
Cycles were repeated every 4 weeks.
as §2, §3, §4, §5, §6

[3] = cited from earlier work
[4] = prior phase III clinical trial; cited from earlier work
[5] = 1.5 mg/day, 3 weeks on, 1 week off, cited from earlier work
[6] = subjects with prior therapy with a VEGFR TKI plus any other systemic agent
[7] = subjects with prior therapy with a checkpoint inhibitor and a prior VEGF TKI
[8] = subjects with prior therapy with two VEGFR TKIs

Compound | ORR (CR + PR) [1] [%] | median PFS [2] [months] | median OS [2] [months] | median PFS, subset receiving a prior check point inhibitor [2] [months] | duration of response (DoR), 1st quartile [2] [months] | 1-year probability of survival [2] | ORR [2, 6] [%] | ORR [2, 7] [%] | ORR [2, 8] [%] | difference in OS between tivozanib and sorafenib in subgroup analyses ([2]; ITT subgroups, Cox Model hazard ratios with 95% confidence intervals) | ORR (CR + PR) ([2]; all subjects, 31 PR/172 tivozanib, 14 PR/175 sorafenib) [%] | difference in OS between the two treatment groups ([2]; subset with prior checkpoint inhibitor, unstratified Log-rank p-value 0.8360) | subjects experiencing a dose limiting toxicity (DLT) ([3]; 2 mg/day tivozanib group) | maximum tolerated dose (MTD) ([3]; previous study KRN951/03-B01) [mg/day] | reversibility of toxicities upon stopping treatment ([3]; previous study KRN951/03-B01) | treatment interruptions and dose reductions due to AEs, compared with sorafenib [4] | study subjects requiring a dose interruption ([5]; 8/272 subjects) [%] | study subjects requiring a dose reduction ([5]; 23/272 subjects) [%]
CNC(=O)c1cc(Oc2ccc(NC(=O)Nc3ccc(Cl)c(C(F)(F)F)c3)cc2)ccn1 [sorafenib, reference compound] | 8.0 | 3.88 | 19.65 | 5.91 | 5.55 | 0.05 | 9.8 | 6.8 | 7.5 | – | – | – | – | – | – | – | – | –
COc1cc2nccc(Oc3ccc(NC(=O)Nc4cc(C)on4)c(Cl)c3)c2cc1OC [tivozanib, N-{2-chloro-4-[(6,7-dimethoxy-4-quinolyl)oxy]-phenyl}-N′-(5-methyl-3-isoxazolyl)urea] | – | 5.59 | 16.39 | 7.29 | 9.79 | 0.37 | 16.7 | 24.4 | 15.2 | do not indicate a statistically significant difference in OS | 18.0 | no statistically significant differences | 3 of 8 | 1.5 | rapidly reversible | fewer treatment interruptions and dose reductions due to AEs | 2.9 | 8.5
